Measurements as given in US9102648B1, “Bioavailable diacylhydrazine ligands for modulating the expression of exogenous genes via an ecdysone receptor complex” (Intrexon Corporation, priority 2003, dated 2015).
pEC50: −log10 of the molar value.

Key:
[1] = target: T1, Bombyx mori EcR (VP16 fusion, CVBE switch construct) (Bombyx mori, UniProt P49881); experiment: Z3 Assay (HEK-293 cells with CVBE and 6XEcRE LacZ, β-galactosidase reporter); conditions: for Fold Induction, Z3 Assay, 3.3 uM: 3.3 uM ligand; for Fold Induction, Z3 Assay, 3.3 uM / Fold Induction, Z3 Assay, 33 uM: ligand treated / DMSO treated cells; for Fold Induction, Z3 Assay, 3.3 uM / Fold Induction, Z3 Assay, 33 uM / pEC50: average of two wells; for Fold Induction, Z3 Assay, 33 uM: 33 uM ligand; for Z3 assay Rel Max FI: maximum fold induction at any concentration relative to that of GS-E ligand; for Z3 assay Rel Max FI / pEC50: HEK-293 Z3 cells; for pEC50: read-out: Z3 assay EC50, β-galactosidase reporter
T1 sequence (P49881 86-606): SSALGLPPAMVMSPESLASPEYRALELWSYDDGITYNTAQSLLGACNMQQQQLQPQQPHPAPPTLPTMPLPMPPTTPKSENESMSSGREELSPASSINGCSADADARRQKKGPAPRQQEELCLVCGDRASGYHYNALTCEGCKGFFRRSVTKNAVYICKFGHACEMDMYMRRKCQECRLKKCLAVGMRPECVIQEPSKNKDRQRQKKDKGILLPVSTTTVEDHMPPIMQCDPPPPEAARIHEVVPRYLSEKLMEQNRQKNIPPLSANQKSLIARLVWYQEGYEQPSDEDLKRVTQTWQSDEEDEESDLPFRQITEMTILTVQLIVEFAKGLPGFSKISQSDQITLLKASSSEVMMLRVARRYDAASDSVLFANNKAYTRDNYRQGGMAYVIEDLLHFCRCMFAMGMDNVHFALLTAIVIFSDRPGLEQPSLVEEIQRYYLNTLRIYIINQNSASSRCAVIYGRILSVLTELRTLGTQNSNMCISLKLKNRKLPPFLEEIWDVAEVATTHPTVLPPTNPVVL
T1 sequence (P19793 1-462 partner): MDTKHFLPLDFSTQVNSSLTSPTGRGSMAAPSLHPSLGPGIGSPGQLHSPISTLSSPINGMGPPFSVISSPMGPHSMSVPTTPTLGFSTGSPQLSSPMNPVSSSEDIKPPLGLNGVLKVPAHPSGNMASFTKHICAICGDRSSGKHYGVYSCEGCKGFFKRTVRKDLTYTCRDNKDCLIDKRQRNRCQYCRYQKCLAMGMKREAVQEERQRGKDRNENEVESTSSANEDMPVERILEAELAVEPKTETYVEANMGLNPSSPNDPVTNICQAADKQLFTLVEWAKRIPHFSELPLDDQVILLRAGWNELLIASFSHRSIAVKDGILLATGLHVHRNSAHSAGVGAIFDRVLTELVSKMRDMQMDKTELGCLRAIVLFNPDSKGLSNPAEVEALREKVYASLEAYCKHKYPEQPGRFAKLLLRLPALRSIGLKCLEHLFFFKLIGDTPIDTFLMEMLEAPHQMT
Text: Dr. F. Gage provided a population of stably transformed cells containing CVBE and 6XEcRE as described in Suhr, S. T., Gil, E. B., Senut M. C., Gage, F. H. (1998) Proc. Natl. Acad. Sci. USA 95, 7999-804. Human 293 kidney cells, also referred to as HEK-293 cells, were sequentially infected with retroviral vectors encoding first the switch construct CVBE, and subsequently the reporter construct 6XEcRE Lac Z. The switch construct contained the coding sequence for amino acids 26-546 from Bombyx mori EcR (BE) (Iatrou) inserted in frame and downstream of the VP16 transactivation domain (VBE). A synthetic ATG start codon was placed under the control of cytomegalovirus (CVBE) immediate early promoter and flanked by long terminal repeats (LTR). The reporter construct contained six copies of the ecdysone response element (EcRE) binding site placed upstream of LacZ and flanked on both sides with LTR sequences (6XEcRE).
Dilution cloning was used to isolate individual clones. Clones were selected using 450 ug/mL G418 and 100 ng/mL puromycin. Individual clones were evaluated based on their response in the presence and absence of test ligands.
Human 293 kidney cells stably transformed with CVBE and 6XEcRE LacZ were maintained in Minimum Essential Medium (Mediates, 10-010-CV) containing 10% FBS (Life Technologies, 26140-087), […] G418 (Mediates, 30-234-CR), and […] (Sigma, P-7255), at 37° C. in an atmosphere containing 5% CO2 and were subculture when they reached 75% confluence.
Z3 cells were seeded into 96-well tissue culture plates at a concentration of 2.5×10^3 cells per well and incubated at 37° C. in 5% CO2 for twenty-four hours. Stock solutions of ligands were prepared in DMSO. Ligand stock solutions were diluted 100 fold in media and 50 μL of this diluted ligand solution ([…]) was added to cells. The final concentration of DMSO was maintained at 0.03% in both controls and treatments.
Reporter gene expression was evaluated 48 hours after treatment of cells, β-galactosidase activity was measured using Gal Screen™ bioluminescent reporter gene assay system from Tropix (GSY1000). Fold induction activities were calculated by dividing relative light units (“RLU”) in ligand treated cells with RLU in DMSO treated cells. Luminescence was detected at room temperature using a Dynex MLX microtiter plate luminometer.
Flanking both constructs are long terminal repeats, G418 and puromycin are selectable markers, CMV is the cytomegalovirus promoter, VBE is coding sequence for amino acids 26-546 from Bombyx mori EcR inserted downstream of the VP16 transactivation domain, 6×EcRE is six copies of the ecdysone response element, lacZ encodes for the reporter enzyme β-galactosidase.
(§1) Each assay was conducted in two separate wells, and the two values were averaged. Fold inductions were calculated by dividing relative light units (“RLU”) in ligand treated cells with RLU in DMSO treated cells. EC50s were calculated from dose response data using a three-parameter logistic model.

[2] = target: GAL4 DBD-CfEcR(DEF)/VP16AD-MmRXRE (Choristoneura fumiferana, UniProt O77240); experiment: 13B3 Assay (CHO stable cell line, luciferase reporter); conditions: for Fold Induction, 13B3 Assay, 33 uM: 33 uM ligand; for Fold Induction, 13B3 Assay, 33 uM / Fold Induction, 13B3 Assay, 3.3 uM: RLU ligand treated / RLU DMSO treated cells; for Fold Induction, 13B3 Assay, 33 uM / Fold Induction, 13B3 Assay, 3.3 uM / pEC50: average of two wells; for Fold Induction, 13B3 Assay, 3.3 uM: 3.3 uM ligand; for 13B3 assay Rel Max FI: maximum fold induction at any concentration relative to that of GS-E ligand, CHO 13B3 cells; for pEC50: read-out: 13B3 EC50, CHO 13B3 stable cell line, luciferase reporter, 48 h
Text: GAL4 DBD-CfEcR(DEF)/VP16AD-MmRXRE:
The wild-type D, E, and F domains from spruce budworm Choristoneura fumiferana EcR (“CfEcR-DEF”; SEQ ID NO: 1) were fused to a GALA DNA binding domain (“Gal4DBD1-147”; SEQ ID NO: 2) and placed under the control of the SV40e promoter of pM vector (PT3119-5, Clontech, Palo Alto, Calif.). The D and E domains from Mus Musculus RXR (“MmRXR-DE”; SEQ ID NO: 11) were fused to the transactivation domain from VP16 (“VP16AD”; SEQ ID NO: 6) and placed under the control of the SV40e promoter of the pVP16 vector (PT3127-5, Clontech, Palo Alto, Calif.).
CHO cells were transiently transfected with transcription cassettes for GAL4 DBD-CJEcR(DEF) and for VP16AD-MmRXRE controlled by SV40e promoters. Stably transfected cells were selected using Hygromycin. Individually isolated CHO cell clones were transiently transfected with a GALA RE-luciferase reporter (pFR-Luc, Stratagene, La Jolla, Calif.). The 13B3 clone was selected using Zeocin.
Cells were trypsinized and diluted to a concentration of 2.5×10^4 cells mL. 100 μL of cell suspension was placed in each well of a 96 well plate and incubated at 37° C. under 5% CO2 for 24 h. Ligand stock solutions were prepared in DMSO and diluted 300 fold for all treatments. Dose response testing consisted of 8 concentrations ranging from 33 μM to 0.01 μM.
Luciferase reporter gene expression was measured 48 h after cell treatment using Bright-Glo™ Luciferase Assay System from Promega (E2650). Luminescence was detected at room temperature using a Dynex MLX microtiter plate luminometer.
as §1

Structure (SMILES) | Fold Induction, Z3 Assay, 3.3 uM [1] | Fold Induction, Z3 Assay, 33 uM [1] | Z3 assay Rel Max FI [1] | pEC50 [1] | Fold Induction, 13B3 Assay, 33 uM [2] | Fold Induction, 13B3 Assay, 3.3 uM [2] | 13B3 assay Rel Max FI [2] | pEC50 [2]
CCc1c(OC)cccc1C(=O)NN(C(=O)c1cc(OC)ccc1OC)C(C)(C)C [RG-100779] | 947 | 304 | 0.707 | 6.75 | 2979 | – | – | –
CCc1c(OC)cccc1C(=O)NN(C(=O)c1ccc(F)cc1)C(C)(C)C [RG-100812] | 1587 | 399 | 0.954 | 6.04 | 202 | – | – | –
CCc1ccc(C(=O)NN(C(=O)c2ccc(F)cc2)C(C)(C)C)c(F)c1 [RG-100901] | 1527 | 185 | 0.918 | 6.50 | 882 | – | – | –
Cc1cc(C)cc(C(=O)N(NC(=O)c2cccc([N+](=O)[O-])c2C)C(C)(C)C)c1 [RG-100915] | 532 | 1292 | 0.912 | 6.00 | 525 | 133 | 0.552 | 5.35
CCc1ccccc1C(=O)N(NC(=O)c1cccc(OC)c1C)C(C)(C)C [RG-101062] | 1127 | 391 | 0.992 | 5.59 | 319 | – | – | –
COc1ccc(Cl)cc1C(=O)N(NC(=O)c1cccc(C)c1C)C(C)(C)C [RG-101178] | 1200 | 431 | 0.887 | 5.88 | 699 | – | – | –
Cc1c(Cl)cccc1C(=O)NN(C(=O)c1cccc(Cl)c1)C(C)(C)C [RG-101202] | 195 | 1 | – | 5.76 | 7 | 5 | 0.007 | 6.43
Cc1cc(C)cc(C(=O)N(NC(=O)c2ccc3ncsc3c2)C(C)(C)C)c1 [RG-101312] | 600 | 292 | 0.955 | 5.25 | 1874 | – | – | –
Cc1c(C(=O)NN(C(=O)c2cc(Cl)cc(Cl)c2)C(C)(C)C)cccc1N(C)C [RG-101316] | 1045 | 350 | 0.896 | 5.80 | 1280 | – | – | –
COc1ccc(C(=O)NN(C(=O)c2cc(Cl)cc(Cl)c2)C(C)(C)C)cc1 [RG-101376] | 1293 | 415 | 0.777 | 6.27 | 7393 | 25656 | 0.654 | 5.87
CCc1ccc(C(=O)NN(C(=O)c2cc(C)ccc2[N+](=O)[O-])C(C)(C)C)cc1 [RG-101398] | 1138 | 403 | 0.712 | 6.55 | 159 | – | – | –
COc1cccc(C(=O)NN(C(=O)c2cc(C)cc(C)c2)C(C)(C)C)c1I [RG-101528] | 748 | 1515 | 0.923 | 5.98 | 3027 | 259 | 1.111 | 4.53
Cc1cc(C)cc(C(=O)N(NC(=O)c2ccc3c(c2)CCO3)C(C)(C)C)c1 [RG-101531] | 1130 | 428 | – | 7.07 | 274 | – | – | –
Cc1ccc(C(=O)NN(C(=O)c2cc(C)cc(C)c2)C(C)(C)C)cc1 [RG-101542] | 1151 | 324 | 0.793 | 6.49 | 439 | – | – | –
Cc1cc(C(=O)N(NC(=O)c2cccc(Cl)c2C)C(C)(C)C)ccc1Br [RG-101664] | 6 | 1 | – | 4.68 | – | 1 | 0.002 | < 4.30
Cc1cc(C)cc(C(=O)N(NC(=O)c2cccc(OC(C)C)c2C)C(C)(C)C)c1 [RG-101670] | 1190 | 929 | 0.853 | 6.33 | 738 | 2297 | 0.874 | 6.19
Cc1cc(C)cc(C(=O)N(NC(=O)c2cccc(I)c2C)C(C)(C)C)c1 [RG-101734] | 987 | 951 | 0.988 | 6.84 | 442 | 918 | – | –
